Source: ChEMBL document CHEMBL4219032, “Triple Reuptake Inhibitors as Potential Therapeutics for Depression and Other Disorders: Design Paradigm and Developmental Challenges” (J Med Chem, 2018)

Legend:
[1] = target: T1, Sodium-dependent dopamine transporter (Homo sapiens, UniProt Q01959)
Description: Binding affinity to DAT (unknown origin)

[2] = target: T2, Sodium-dependent serotonin transporter (Homo sapiens, UniProt P31645)
Description: Binding affinity to SERT (unknown origin)

[3] = target: T3, Sodium-dependent noradrenaline transporter (Homo sapiens, UniProt P23975)
Description: Binding affinity to NET (unknown origin)

[4] = target: Sodium-dependent serotonin transporter (Rattus norvegicus, UniProt P31652); assay: Inhibition of rat brain SERT assessed as reduction of [3H]5-HT re-uptake preincubated for 30 mins followed by [3H]5-HT addition measured after 5 mins by scintillation counting
Sodium-dependent serotonin transporter (Rattus norvegicus, UniProt P31652), sequence (P31652 whole entry): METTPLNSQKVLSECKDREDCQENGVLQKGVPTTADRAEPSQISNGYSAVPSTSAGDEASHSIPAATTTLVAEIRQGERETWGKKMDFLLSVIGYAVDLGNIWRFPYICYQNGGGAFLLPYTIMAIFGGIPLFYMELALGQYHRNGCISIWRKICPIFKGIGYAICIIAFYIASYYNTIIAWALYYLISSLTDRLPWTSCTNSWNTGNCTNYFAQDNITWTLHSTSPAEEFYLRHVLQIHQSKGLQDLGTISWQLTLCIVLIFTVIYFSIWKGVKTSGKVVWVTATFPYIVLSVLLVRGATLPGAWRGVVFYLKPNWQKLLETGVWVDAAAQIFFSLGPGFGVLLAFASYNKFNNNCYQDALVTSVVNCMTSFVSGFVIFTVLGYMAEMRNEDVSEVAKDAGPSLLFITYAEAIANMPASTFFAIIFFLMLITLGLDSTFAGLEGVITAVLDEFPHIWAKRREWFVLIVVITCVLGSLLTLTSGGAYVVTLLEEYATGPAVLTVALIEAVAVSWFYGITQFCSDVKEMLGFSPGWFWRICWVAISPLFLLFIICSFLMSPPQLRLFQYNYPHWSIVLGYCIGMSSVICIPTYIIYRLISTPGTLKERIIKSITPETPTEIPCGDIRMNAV

[5] = target: Norepinephrine transporter (Rattus norvegicus, UniProt Q9WTR4); assay: Inhibition of rat brain NET assessed as reduction of [3H]-NE re-uptake preincubated for 30 mins followed by [3H]-NE addition measured after 5 mins by scintillation counting
Norepinephrine transporter, sequence (Q9WTR4 whole entry): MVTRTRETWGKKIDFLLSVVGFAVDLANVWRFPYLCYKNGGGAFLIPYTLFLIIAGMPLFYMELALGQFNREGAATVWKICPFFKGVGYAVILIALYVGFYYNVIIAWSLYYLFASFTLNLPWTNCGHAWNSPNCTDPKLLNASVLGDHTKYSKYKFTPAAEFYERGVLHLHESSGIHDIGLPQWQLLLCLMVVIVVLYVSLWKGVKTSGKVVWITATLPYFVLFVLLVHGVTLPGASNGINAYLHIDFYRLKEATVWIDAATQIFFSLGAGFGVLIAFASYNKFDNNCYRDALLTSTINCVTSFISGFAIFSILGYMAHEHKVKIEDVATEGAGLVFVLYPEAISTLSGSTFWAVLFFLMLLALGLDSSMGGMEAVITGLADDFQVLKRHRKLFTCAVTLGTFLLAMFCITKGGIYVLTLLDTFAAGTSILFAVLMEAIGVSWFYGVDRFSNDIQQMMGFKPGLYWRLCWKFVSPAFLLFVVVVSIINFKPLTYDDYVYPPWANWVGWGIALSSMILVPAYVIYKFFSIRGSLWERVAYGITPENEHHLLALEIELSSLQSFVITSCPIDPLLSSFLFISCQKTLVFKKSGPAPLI

[6] = target: Sodium-dependent dopamine transporter (Rattus norvegicus, UniProt P23977); assay: Inhibition of rat brain DAT assessed as reduction of [3H]-DA re-uptake preincubated for 30 mins followed by [3H]-DA addition measured after 5 mins by scintillation counting
Sodium-dependent dopamine transporter (Rattus norvegicus, UniProt P23977), sequence (P23977 whole entry): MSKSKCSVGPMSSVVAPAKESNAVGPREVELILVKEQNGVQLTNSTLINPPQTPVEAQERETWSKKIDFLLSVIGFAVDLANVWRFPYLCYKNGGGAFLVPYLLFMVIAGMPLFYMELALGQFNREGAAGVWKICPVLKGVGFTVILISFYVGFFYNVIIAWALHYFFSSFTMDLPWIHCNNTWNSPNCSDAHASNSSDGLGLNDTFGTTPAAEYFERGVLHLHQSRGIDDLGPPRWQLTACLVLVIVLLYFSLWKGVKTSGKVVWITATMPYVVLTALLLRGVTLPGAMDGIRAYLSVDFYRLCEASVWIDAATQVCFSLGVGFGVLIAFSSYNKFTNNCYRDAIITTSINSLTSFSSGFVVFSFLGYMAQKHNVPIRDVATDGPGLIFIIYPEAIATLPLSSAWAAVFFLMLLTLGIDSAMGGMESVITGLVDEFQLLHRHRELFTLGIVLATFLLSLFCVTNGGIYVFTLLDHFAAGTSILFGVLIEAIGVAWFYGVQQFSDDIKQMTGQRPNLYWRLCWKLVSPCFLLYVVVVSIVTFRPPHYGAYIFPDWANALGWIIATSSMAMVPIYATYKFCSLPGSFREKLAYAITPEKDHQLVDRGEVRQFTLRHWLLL

[7] = target: T2, Sodium-dependent serotonin transporter; assay: Inhibition of human SERT expressed in CHO cells assessed as reduction of [3H]-5-HT re-uptake preincubated for 10 mins followed by [3H]-5-HT addition measured after 10 mins by liquid scintillation counting; assay type: cell-based
[8] = target: T3, Sodium-dependent noradrenaline transporter; assay: Inhibition of human NET expressed in CHO cells assessed as reduction of [3H]-NE re-uptake preincubated for 10 mins followed by [3H]-NE addition measured after 10 mins by liquid scintillation counting; assay type: cell-based
[9] = target: T1, Sodium-dependent dopamine transporter; assay: Inhibition of human DAT expressed in CHO cells assessed as reduction of [3H]-DA re-uptake preincubated for 10 mins followed by [3H]-DA addition measured after 10 mins by liquid scintillation counting; assay type: cell-based
Homo sapiens [10] = assay: Anti-obesity activity in human assessed as body weight loss at […], po administered for 6 months relative to control; assay type: functional
Homo sapiens [11] = assay: Anti-obesity activity in human assessed as body weight loss at 0.5 mg/kg, po administered for 6 months relative to control; assay type: functional
Homo sapiens [12] = assay: Anti-obesity activity in human assessed as body weight loss at 1 mg/kg, po administered for 6 months relative to control; assay type: functional
Homo sapiens [13] = assay: In vivo receptor occupancy at DAT in human brain at 0.125 to 0.5 mg, iv via bolus dosing measured at 3 hrs post dose by PET analysis; assay type: functional
[14] = Tmax in human at 9 mg; assay type: ADME, organism-based; conditions: in vivo
[15] = target: T1, Sodium-dependent dopamine transporter; assay: Inhibition of DAT (unknown origin)-mediated uptake
[16] = target: T2, Sodium-dependent serotonin transporter; assay: Inhibition of SERT (unknown origin)-mediated uptake
[17] = target: T1, Sodium-dependent dopamine transporter; assay: Binding affinity to human DAT
[18] = target: T2, Sodium-dependent serotonin transporter; assay: Binding affinity to human SERT
[19] = target: T3, Sodium-dependent noradrenaline transporter; assay: Binding affinity to human NET
[20] = Tmax in human plasma at 30 mg administered qd for 3 days followed by 60 mg administration at qd for next 11 days measured on day 14 post last dose by LC-MS/MS analysis; assay type: ADME, organism-based
[21] = Half life in human cerebrospinal fluid at 30 mg administered qd for 3 days followed by 60 mg administration at qd for next 11 days measured on day 14 post last dose by LC-MS/MS analysis; assay type: ADME, tissue-based
[22] = Ratio of drug level in human brain to plasma at 30 mg administered qd for 3 days followed by 60 mg administration at qd for next 11 days measured on day 14 post last dose by LC-MS/MS analysis; assay type: ADME; conditions: read-out: BPR
Homo sapiens [23] = assay: In vivo receptor occupancy at DAT in human at 1 mg/day by PET imaging method; assay type: functional
Homo sapiens [24] = assay: In vivo receptor occupancy at SERT in human at 1 mg/day by PET imaging method; assay type: functional
Homo sapiens [25] = assay: In vivo receptor occupancy at DAT in human at 2 mg/day by PET imaging method; assay type: functional
Homo sapiens [26] = assay: In vivo receptor occupancy at SERT in human at 2 mg/day by PET imaging method; assay type: functional
[27] = target: T2, Sodium-dependent serotonin transporter; assay: biochemical; assay type: cell-based, HEK293
Description: Binding affinity to human SERT expressed in HEK293 cells after 60 mins in presence of [3H]imipramine by liquid scintillation counting

[28] = target: T3, Sodium-dependent noradrenaline transporter; assay: Binding affinity to human NET expressed in HEK293 cells after 60 mins in presence of [3H]imipramine by liquid scintillation counting; assay type: cell-based
[29] = target: T1, Sodium-dependent dopamine transporter; assay: Binding affinity to human DAT expressed in HEK293 cells after 60 mins in presence of […] by liquid scintillation counting; assay type: cell-based
Rattus norvegicus [30] = assay: In vivo receptor occupancy at SERT in ip dosed rat brain measured 60 mins post dose; assay type: functional; conditions: 1 h
Rattus norvegicus [31] = assay: In vivo receptor occupancy at NET in ip dosed rat brain measured 60 mins post dose; assay type: functional; conditions: 1 h
Rattus norvegicus [32] = assay: In vivo receptor occupancy at DAT in ip dosed rat brain measured 60 mins post dose; assay type: functional; conditions: 1 h
[33] = target: T2, Sodium-dependent serotonin transporter; assay: Inhibition of human SERT expressed in HEK cells assessed as reduction of [3H]5-HT uptake preincubated for 10 mins followed by [3H]5-HT addition measured after 10 mins by scintillation counting method; assay type: cell-based
[34] = target: T1, Sodium-dependent dopamine transporter; assay: Inhibition of human DAT expressed in HEK cells assessed as reduction of [3H]-DA uptake preincubated for 10 mins followed by […] measured after 10 mins by scintillation counting method; assay type: cell-based
[35] = target: T3, Sodium-dependent noradrenaline transporter; assay: Inhibition of human NET expressed in HEK cells assessed as reduction of [3H]-NE uptake preincubated for 10 mins followed by […] measured after 10 mins by scintillation counting method; assay type: cell-based

T2 sequence (P31645 whole entry): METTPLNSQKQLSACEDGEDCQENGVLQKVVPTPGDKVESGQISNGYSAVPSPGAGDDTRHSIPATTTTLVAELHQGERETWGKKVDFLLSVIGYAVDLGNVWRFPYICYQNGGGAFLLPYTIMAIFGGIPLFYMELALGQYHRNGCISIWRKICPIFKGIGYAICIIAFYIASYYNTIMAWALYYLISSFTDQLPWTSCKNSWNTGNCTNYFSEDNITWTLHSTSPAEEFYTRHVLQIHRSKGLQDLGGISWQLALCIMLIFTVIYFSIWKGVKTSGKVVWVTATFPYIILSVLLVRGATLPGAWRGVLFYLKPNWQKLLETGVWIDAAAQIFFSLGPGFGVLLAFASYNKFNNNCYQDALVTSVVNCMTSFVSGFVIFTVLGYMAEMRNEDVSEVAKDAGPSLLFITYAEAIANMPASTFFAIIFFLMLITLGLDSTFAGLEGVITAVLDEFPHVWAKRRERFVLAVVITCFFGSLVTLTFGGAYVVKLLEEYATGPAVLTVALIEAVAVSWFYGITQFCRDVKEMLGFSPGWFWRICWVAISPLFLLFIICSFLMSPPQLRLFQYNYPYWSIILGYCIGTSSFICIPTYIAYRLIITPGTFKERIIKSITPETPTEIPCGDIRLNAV
T3 sequence (P23975 whole entry): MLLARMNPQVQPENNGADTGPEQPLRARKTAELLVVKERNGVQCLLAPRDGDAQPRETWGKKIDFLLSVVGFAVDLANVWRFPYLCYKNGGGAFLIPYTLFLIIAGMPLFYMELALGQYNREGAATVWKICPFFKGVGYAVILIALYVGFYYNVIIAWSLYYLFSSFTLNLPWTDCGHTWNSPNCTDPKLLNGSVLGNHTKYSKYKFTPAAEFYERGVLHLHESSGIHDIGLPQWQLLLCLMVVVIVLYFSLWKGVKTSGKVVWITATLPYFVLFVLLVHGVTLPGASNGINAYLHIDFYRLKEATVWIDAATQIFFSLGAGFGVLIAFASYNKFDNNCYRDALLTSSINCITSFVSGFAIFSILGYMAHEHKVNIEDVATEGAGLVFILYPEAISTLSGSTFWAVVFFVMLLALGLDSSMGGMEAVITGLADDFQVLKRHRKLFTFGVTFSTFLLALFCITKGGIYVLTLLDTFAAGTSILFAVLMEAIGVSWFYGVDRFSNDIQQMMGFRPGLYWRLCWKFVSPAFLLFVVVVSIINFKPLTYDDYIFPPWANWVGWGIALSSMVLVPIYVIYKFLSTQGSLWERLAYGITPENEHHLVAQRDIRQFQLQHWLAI
T1 sequence (Q01959 whole entry): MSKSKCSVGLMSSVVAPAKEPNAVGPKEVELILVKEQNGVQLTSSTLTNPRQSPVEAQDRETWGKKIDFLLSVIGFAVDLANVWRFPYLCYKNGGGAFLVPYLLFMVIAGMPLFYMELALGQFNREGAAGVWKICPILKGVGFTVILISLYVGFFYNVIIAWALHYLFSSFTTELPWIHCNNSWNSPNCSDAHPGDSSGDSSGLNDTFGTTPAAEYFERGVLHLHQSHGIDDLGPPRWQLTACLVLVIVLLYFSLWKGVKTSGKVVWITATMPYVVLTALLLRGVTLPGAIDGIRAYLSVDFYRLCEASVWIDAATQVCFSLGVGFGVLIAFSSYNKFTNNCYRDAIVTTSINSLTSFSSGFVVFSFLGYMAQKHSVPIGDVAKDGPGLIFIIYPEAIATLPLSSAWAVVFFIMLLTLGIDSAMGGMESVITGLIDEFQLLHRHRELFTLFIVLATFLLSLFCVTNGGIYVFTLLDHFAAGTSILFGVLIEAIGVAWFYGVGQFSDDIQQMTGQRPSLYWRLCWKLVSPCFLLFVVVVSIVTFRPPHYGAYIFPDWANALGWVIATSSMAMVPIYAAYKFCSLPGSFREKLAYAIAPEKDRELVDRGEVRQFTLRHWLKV

C#Cc1ccc([C@@H]2CN3CCC[C@@H]3c3ccccc32)cc1
Ki [1]: 1.6 nM
Ki [2]: 0.27 nM
Ki [3]: 4.1 nM

COC(=O)[C@H]1CN(C)CC[C@@H]1c1ccc(Cl)cc1
IC50 [4]: 8490 nM
IC50 [5]: 252 nM
IC50 [6]: 233 nM

CN(C)CC(c1ccc(OC(=O)c2ccccc2)cc1)C1(O)CCCCC1 (stereo not drawn)
IC50 [7]: 105 nM
IC50 [8]: 644 nM
IC50 [9]: 813 nM

CCOC[C@H]1[C@@H](c2ccc(Cl)c(Cl)c2)C[C@@H]2CC[C@H]1N2C
IC50 [1]: 8 nM
Activity (Homo sapiens [10]): 4.5%
Activity (Homo sapiens [11]): 9.2%
Activity (Homo sapiens [12]): 10.6%
Occ (Homo sapiens [13]): 18 - 77%
Tmax [14]: 6 h
IC50 [2]: 11 nM
IC50 [3]: 3.2 nM

C[C@]1(O)CC[C@](CN)(c2ccc(Cl)c(Cl)c2)CC1
IC50 [15]: 518 nM
IC50 [16]: 1190 nM

Clc1ccc(C2CCNCC23COC3)cc1Cl (stereo not drawn)
Ki [17]: 158 nM
Ki [18]: 63.1 nM
Ki [19]: 158 nM

CN1Cc2c(N)cccc2C(c2ccc(Cl)c(Cl)c2)C1 (stereo not drawn)
Ki [1]: 10.9 nM
Ki [2]: 10.3 nM
Ki [3]: 8.8 nM

CN(C)C[C@]1(c2ccc(Cl)c(Cl)c2)CC[C@@](C)(O)CC1
IC50 [15]: 41 nM
IC50 [1]: 41 nM
IC50 [16]: 34 nM
Tmax [20]: 4 h
half-life [21]: 18 h
Kp at 14 day [22]: 0.22
IC50 [2]: 34 nM

CNC[C@]1(c2ccc(Cl)c(Cl)c2)CC[C@](C)(O)CC1
IC50 [15]: 71 nM
IC50 [16]: 210 nM
Tmax [20]: 6 h
half-life [21]: 32 h
Kp at 14 day [22]: 0.46

COC[C@H]1[C@@H](c2ccc(Cl)c(Cl)c2)C[C@@H]2CC[C@H]1N2C
IC50 [1]: 10 nM
Occ (Homo sapiens [23]): 60%
Occ (Homo sapiens [24]): 55%
Occ (Homo sapiens [25]): 80%
Occ (Homo sapiens [26]): 75%
IC50 [2]: 10 nM
IC50 [3]: 2 nM

COC[C@@H]1CN[C@@H]2CC[C@@]1(c1ccc(Cl)c(Cl)c1)C2
Ki [17]: 79.4 nM
Ki [18]: 31.6 nM
Ki [19]: 6.31 nM

Clc1ccc([C@@H]2CCN[C@@H]3CCOC[C@@H]32)cc1Cl
Ki [17]: 39.8 nM
Ki [18]: 31.6 nM
Ki [19]: 50.1 nM

COC[C@H]1CN[C@@H]2CC[C@@]1(c1ccc(Cl)c(Cl)c1)C2
Ki [17]: 5.01 nM
Ki [18]: 10 nM
Ki [19]: 3.16 nM

CNC[C@H](c1ccc2ccccc2c1)[C@H](O)c1ccccc1
Ki [27]: 2.1 nM
Ki [28]: 1.5 nM
Ki [29]: 61 nM

Clc1ccc([C@]23CNCC2C3)cc1Cl (stereo partly drawn)
ED50 (Rattus norvegicus [30]): 0.5 mg/kg
ED50 (Rattus norvegicus [31]): 2 mg/kg
ED50 (Rattus norvegicus [32]): 49 mg/kg

c1ccc2cc([C@]34CNCC3C4)ccc2c1 (stereo partly drawn)
IC50 [33]: 84 nM
IC50 [34]: 38 nM
IC50 [35]: 6 nM

COC[C@@H]1CN[C@H]2CC[C@]1(c1ccc(Cl)c(Cl)c1)C2
Ki [17]: 5.75 nM
Ki [18]: 2.09 nM
Ki [19]: 1.41 nM

C#Cc1ccc([C@H]2CN3CCC[C@H]3c3ccccc32)cc1
Ki [1]: 74.3 nM
Ki [2]: 15.8 nM
Ki [3]: 227 nM
